Reference: patent US10160729B2, “Hsp70 modulators and methods for making and using the same” (Memorial Sloan Kettering Cancer Center, priority 2014, dated 2018)

Tested on: MOLM-13 cells
Assay: Caspase cleavage assay (Caspase3, 7 activation)
Type: cell-based
Details: Homo sapiens, 16 h treatment, caspase substrate Z-DEVD-R110, read-out: c* Concentration at which 50% of the maximum signal was achieved (caspase activation)
Method in brief: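 Cells (30,000/well, RPMI) treated 16 h with compound or DMSO in triplicate, then given buffer with 10 mM HEPES pH 7.5, 2 mM EDTA, 0.1% CHAPS and 25 μM Z-DEVD-R110. Fluorescence read once signal stabilized; results given as percentage increase in apoptotic cells versus DMSO-treated control.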

**Q.** CN1CCN(c2ncc(Sc3ccc(C#N)cc3)c(OCc3ccccc3)n2)CC1 [compound 44, 4-((4-(Benzyloxy)-2-(4-methylpiperazin-1-yl)pyrimidin-5-yl)thio)benzonitrile] was tested. Which EC50 did it give?
**A.** 400 to 1000 nM

**Q.** Which EC50 does the source give for COc1cccc(COc2nc(N3CCN(C4CC4)CC3)ncc2Sc2ccc(C(N)=O)cc2)c1 [190p, 4-((2-(4-Cyclopropylpiperazin-1-yl)-4-((3-methoxybenzyl)oxy)pyrimidin-5-yl)thio) benzamide] here?
**A.** < 200 nM

**Q.** For COc1cc(COc2nc(N3CCN(C)CC3)ncc2Sc2ccc(C(N)=O)c(Cl)c2)ccn1 [compound 124, 2-Chloro-4-((4-((2-methoxypyridin-4-yl)methoxy)-2-(4-methylpiperazin-1-yl)pyrimidin-5-yl)thio)benzamide], which EC50 is on record?
**A.** < 200 nM

**Q.** How did the EC50 turn out when CN1CCN(c2ncc(Sc3ccc(C(N)=O)cc3)c(OCc3cccc(N4CCCC4)c3)n2)CC1 [100b, 4-((2-(4-Methylpiperazin-1-yl)-4-((3-(pyrrolidin-1-yl)benzyl)oxy)pyrimidin-5-yl)thio)benzamide] was run?
**A.** 200 to 400 nM

**Q.** Cc1cc(Sc2cnc(N3CCN(C)CC3)nc2OCc2ccccc2)ccc1C(N)=O [compound 74, 4-((4-(Benzyloxy)-2-(4-methylpiperazin-1-yl)pyrimidin-5-yl)thio)-2-methylbenzamide] was tested. Which EC50 did it give?
**A.** 400 to 1000 nM

**Q.** For CN(C)[C@@H]1CCN(c2ncc(Sc3ccc(C(N)=O)cc3)c(OCc3cccc(OC(F)(F)F)c3)n2)C1 [compound 205, (R)-4-((2-(3-(Dimethylamino)pyrrolidin-1-yl)-4-((3-(trifluoromethoxy)benzyl)oxy)pyrimidin-5-yl)thio)benzamide], which EC50 is on record?
**A.** 400 to 1000 nM

**Q.** Which EC50 does the source give for COc1cccc(COc2nc(N3CCN(CC#CCO)CC3)ncc2Sc2ccc(C(N)=O)cc2)c1 [compound 326, 4-((2-(4-(4-Hydroxybut-2-yn-1-yl)piperazin-1-yl)-4-((3-methoxybenzyl)oxy)pyrimidin-5-yl)thio)benzamide] here?
**A.** < 200 nM

**Q.** Which EC50 does the source give for COc1ccc(F)c(COc2nc(N3CCN(C)CC3)ncc2Sc2ccc(C(N)=O)c(Cl)c2)c1 [compound 109] here?
**A.** < 200 nM

**Q.** Which EC50 does the source give for C[C@@H]1CN(C)[C@@H](C)CN1c1ncc(Sc2ccc(C(N)=O)cc2)c(OCc2ccccc2)n1 [compound 182, 4-((4-(Benzyloxy)-2-((2R,5S)-2,4,5-trimethylpiperazin-1-yl)pyrimidin-5-yl)thio)benzamide] here?
**A.** ≥ 1200 nM

**Q.** With CC(=O)c1ccc(Sc2cnc(N3CCN(C)CC3)nc2OCc2ccccc2)cc1 [compound 36, 1-(4-((4-(Benzyloxy)-2-(4-methylpiperazin-1-yl)pyrimidin-5-yl)thio)phenyl)ethanone] as the molecule, how does the EC50 read?
**A.** 1000 to 1200 nM

**Q.** How did the EC50 turn out when COc1ccc(COc2nc(N3CCN(C)CC3)ncc2Sc2ccc(C(N)=O)cc2)cc1 [compound 96, 4-((4-((4-Methoxybenzyl)oxy)-2-(4-methylpiperazin-1-yl)pyrimidin-5-yl)thio)benzamide] was run?
**A.** 400 to 1000 nM

**Q.** Which EC50 does the source give for C=CCN1CCN(c2ncc(Sc3ccc(C(N)=O)cc3)c(OCc3cccc(OC)c3)n2)CC1 [190o, 4-((2-(4-Allylpiperazin-1-yl)-4-((3-methoxybenzyl)oxy)pyrimidin-5-yl)thio)benzamide] here?
**A.** < 200 nM

**Q.** Which EC50 does the source give for COc1cccc(COc2nc(N3CCN(C)C(=O)C3)ncc2Sc2ccc(C(N)=O)cc2)c1 [190t, 4-((4-((3-Methoxybenzyl)oxy)-2-(4-methyl-3-oxopiperazin-1-yl)pyrimidin-5-yl)thio) benzamide] here?
**A.** < 200 nM

**Q.** CN1CCN(c2ncc(Sc3ccc(C(N)=O)c(F)c3)c(OCc3ccccc3)n2)CC1 [compound 79, 4-((4-(Benzyloxy)-2-(4-methylpiperazin-1-yl)pyrimidin-5-yl)thio)-2-fluorobenzamide] was tested. Which EC50 did it give?
**A.** 200 to 400 nM

**Q.** Which EC50 does the source give for CN(C)[C@@H]1CCN(c2ncc(Sc3ccc(C(N)=O)cc3)c(OCc3cccc(F)c3)n2)C1 [compound 363, (R)-4-((2-(3-(Dimethylamino)pyrrolidin-1-yl)-4-((3-fluorobenzyl)oxy)pyrimidin-5-yl)thio)benzamide] here?
**A.** 200 to 400 nM

**Q.** With CN1CCN(c2ncc(Sc3ccc(C(N)=O)c(Cl)c3)c(OCc3cccc(N)c3)n2)CC1 [compound 117, 4-((4-((3-Aminobenzyl)oxy)-2-(4-methylpiperazin-1-yl)pyrimidin-5-yl)thio)-2-chlorobenzamide] as the molecule, how does the EC50 read?
**A.** 200 to 400 nM

**Q.** Which EC50 does the source give for COc1cccc(COc2nc(N3CCN(C)CC3)ncc2Sc2ccc(C(N)=O)c(Cl)c2)c1 [compound 108, 2-Chloro-4-((4-((3-methoxybenzyl)oxy)-2-(4-methylpiperazin-1-yl)pyrimidin-5-yl)thio)benzamide] here?
**A.** < 200 nM

**Q.** C#CCCCCN1CCN(c2ncc(Sc3ccc(C(N)=O)cc3)c(OCc3cccc(N(C)C)c3)n2)CC1 [185e, 4-((4-((3-(Dimethylamino)benzyl)oxy)-2-(4-(hex-5-yn-1-yl)piperazin-1-yl)pyrimidin-5-yl)thio)benzamide] was tested. Which EC50 did it give?
**A.** < 200 nM

**Q.** For CN(C)[C@@H]1CCN(c2ncc(Sc3ccc(C(N)=O)c(C(F)(F)F)c3)c(OCc3cccc(Cl)c3)n2)C1 [compound 218, (R)-4-((4-((3-Chlorobenzyl)oxy)-2-(3-(dimethylamino)pyrrolidin-1-yl)pyrimidin-5-yl)thio)-2-(trifluoromethyl)benzamide], which EC50 is on record?
**A.** < 200 nM

**Q.** With CN1CCN(c2ncc(Sc3cccc(C(N)=O)c3)c(OCc3ccccc3)n2)CC1 [compound 67, 3-((4-(Benzyloxy)-2-(4-methylpiperazin-1-yl)pyrimidin-5-yl)thio)benzamide] as the molecule, how does the EC50 read?
**A.** 200 to 400 nM

**Q.** How did the EC50 turn out when CN(C)c1cccc(COc2nc(-c3cc[nH]c3)ncc2Sc2ccc(C(N)=O)cc2)c1 [compound 187, 4-((4-((3-(Dimethylamino)benzyl)oxy)-2-(1H-pyrrol-3-yl)pyrimidin-5-yl)thio)benzamide] was run?
**A.** 1000 to 1200 nM

**Q.** How did the EC50 turn out when C[C@H](Oc1nc(N2CCN(C)CC2)ncc1Sc1ccc(C(N)=O)cc1)c1ccc(F)cc1 [100n, (S)-4-((4-(1-(4-Fluorophenyl)ethoxy)-2-(4-methylpiperazin-1-yl)pyrimidin-5-yl)thio)benzamide] was run?
**A.** ≥ 1200 nM

**Q.** For COc1ccnc(COc2nc(N3CCN(C)CC3)ncc2Sc2ccc(C(N)=O)c(Cl)c2)c1 [compound 126, 2-Chloro-4-((4-((4-methoxypyridin-2-yl)methoxy)-2-(4-methylpiperazin-1-yl)pyrimidin-5-yl)thio)benzamide], which EC50 is on record?
**A.** 200 to 400 nM

**Q.** CN(C)[C@@H]1CCN(c2ncc(Sc3ccc(C(N)=O)cc3)c(OCc3ccnc(N)c3)n2)C1 [compound 206, (R)-4-((4-((2-Aminopyridin-4-yl)methoxy)-2-(3-(dimethylamino)pyrrolidin-1-yl)pyrimidin-5-yl)thio)benzamide] was tested. Which EC50 did it give?
**A.** 400 to 1000 nM

**Q.** NC(=O)c1ccc(Sc2cnc(N3CCNCC3)nc2OCc2ccccc2)cc1 [compound 167, 4-((4-(Benzyloxy)-2-(piperazin-1-yl)pyrimidin-5-yl)thio)benzamide] was tested. Which EC50 did it give?
**A.** ≥ 1200 nM

**Q.** Which EC50 does the source give for COc1cccc(COc2nc(N3CCN(C(C)(C)C4CC4)CC3)ncc2Sc2ccc(C(N)=O)cc2)c1 [compound 313, 4-((2-(4-(2-Cyclopropylpropan-2-yl)piperazin-1-yl)-4-((3-methoxybenzyl)oxy)pyrimidin-5-yl)thio)benzamide] here?
**A.** ≥ 1200 nM

**Q.** COc1cccc(COc2nc(N3CCN(Cc4ccco4)CC3)ncc2Sc2ccc(C(N)=O)cc2)c1 [190u, 4-((2-(4-(Furan-2-ylmethyl)piperazin-1-yl)-4-((3-methoxybenzyl)oxy)pyrimidin-5-yl)thio)benzamide] was tested. Which EC50 did it give?
**A.** < 200 nM

**Q.** With CN[C@@H]1CCN(c2ncc(Sc3ccc(C(N)=O)c(Cl)c3)c(OCc3ccc(F)c(OC)c3)n2)C1 [compound 214, (R)-2-Chloro-4-((4-((4-fluoro-3-methoxybenzyl)oxy)-2-(3-(methylamino)pyrrolidin-1-yl)pyrimidin-5-yl)thio)benzamide] as the molecule, how does the EC50 read?
**A.** 400 to 1000 nM

**Q.** Which EC50 does the source give for C#CCN1CCN(c2ncc(Sc3ccc(C(N)=O)cc3)c(OCc3cccc(OC)c3)n2)CC1 [compound 198, 4-((4-((3-Methoxybenzyl)oxy)-2-(4-(prop-2-yn-1-yl)piperazin-1-yl)pyrimidin-5-yl)thio)benzamide] here?
**A.** < 200 nM

**Q.** For CN1CCN(c2ncc(Sc3ccc(N)nc3)c(OCc3cccc(C(F)(F)F)c3)n2)CC1 [146e, 5-((2-(4-Methylpiperazin-1-yl)-4-((3-(trifluoromethyl)benzyl)oxy)pyrimidin-5-yl)thio)pyridin-2-amine], which EC50 is on record?
**A.** 400 to 1000 nM

**Q.** Which EC50 does the source give for CN1CCN(c2ncc(Sc3ccc(C(N)=O)cc3)c(OCc3ccoc3)n2)CC1 [100j, 4-((4-(Furan-3-ylmethoxy)-2-(4-methylpiperazin-1-yl)pyrimidin-5-yl)thio)benzamide] here?
**A.** 200 to 400 nM

**Q.** Which EC50 does the source give for CN1CCN(c2ncc(Cc3ccc(C(N)=O)cc3)c(OCc3ccc(C#N)cc3)n2)CC1 [compound 304, 4-((4-((4-Cyanobenzyl)oxy)-2-(4-methylpiperazin-1-yl)pyrimidin-5-yl)methyl)benzamide] here?
**A.** ≥ 1200 nM

**Q.** For C=CC(=O)Nc1ccc(Sc2cnc(N3CCN(C)CC3)nc2OCc2ccccc2)cn1 [compound 56, N-(5-((4-(Benzyloxy)-2-(4-methylpiperazin-1-yl)pyrimidin-5-yl)thio)pyridin-2-yl)acrylamide], which EC50 is on record?
**A.** ≥ 1200 nM

**Q.** How did the EC50 turn out when CN1CCN(c2ncc(Sc3ccc(F)c(C(N)=O)c3)c(OCc3ccccc3)n2)CC1 [compound 68, 5-((4-(Benzyloxy)-2-(4-methylpiperazin-1-yl)pyrimidin-5-yl)thio)-2-fluorobenzamide] was run?
**A.** 1000 to 1200 nM

**Q.** Which EC50 does the source give for CN1CCN(c2ncc(Sc3ccc(C=O)o3)c(OCc3ccccc3)n2)CC1 [compound 29, 5-((4-(Benzyloxy)-2-(4-methylpiperazin-1-yl)pyrimidin-5-yl)thio)furan-2-carbaldehyde] here?
**A.** 400 to 1000 nM

**Q.** Which EC50 does the source give for CN(C)[C@@H]1CCN(c2ncc(Sc3ccc(C(N)=O)cc3)c(OCc3ccccc3)n2)C1 [compound 207, (R)-4-((4-(Benzyloxy)-2-(3-(dimethylamino)pyrrolidin-1-yl)pyrimidin-5-yl)thio)benzamide] here?
**A.** 400 to 1000 nM

**Q.** CN1CCN(c2ncc(Sc3ccc(N)nc3)c(OCc3ccc(F)cc3)n2)CC1 [146c, 5-((4-((4-Fluorobenzyl)oxy)-2-(4-methylpiperazin-1-yl)pyrimidin-5-yl)thio)pyridin-2-amine] was tested. Which EC50 did it give?
**A.** 200 to 400 nM
